# Data taken from patent US20250011288A1 (BRISTOL-MYERS SQUIBB COMPANY, priority 2021, published 2025).
# Target: T1, human RXFP1 (Homo sapiens, UniProt Q9HBX9)
# T1 construct: expressed in transfected cells
# T1 sequence (Q9HBX9 1-757): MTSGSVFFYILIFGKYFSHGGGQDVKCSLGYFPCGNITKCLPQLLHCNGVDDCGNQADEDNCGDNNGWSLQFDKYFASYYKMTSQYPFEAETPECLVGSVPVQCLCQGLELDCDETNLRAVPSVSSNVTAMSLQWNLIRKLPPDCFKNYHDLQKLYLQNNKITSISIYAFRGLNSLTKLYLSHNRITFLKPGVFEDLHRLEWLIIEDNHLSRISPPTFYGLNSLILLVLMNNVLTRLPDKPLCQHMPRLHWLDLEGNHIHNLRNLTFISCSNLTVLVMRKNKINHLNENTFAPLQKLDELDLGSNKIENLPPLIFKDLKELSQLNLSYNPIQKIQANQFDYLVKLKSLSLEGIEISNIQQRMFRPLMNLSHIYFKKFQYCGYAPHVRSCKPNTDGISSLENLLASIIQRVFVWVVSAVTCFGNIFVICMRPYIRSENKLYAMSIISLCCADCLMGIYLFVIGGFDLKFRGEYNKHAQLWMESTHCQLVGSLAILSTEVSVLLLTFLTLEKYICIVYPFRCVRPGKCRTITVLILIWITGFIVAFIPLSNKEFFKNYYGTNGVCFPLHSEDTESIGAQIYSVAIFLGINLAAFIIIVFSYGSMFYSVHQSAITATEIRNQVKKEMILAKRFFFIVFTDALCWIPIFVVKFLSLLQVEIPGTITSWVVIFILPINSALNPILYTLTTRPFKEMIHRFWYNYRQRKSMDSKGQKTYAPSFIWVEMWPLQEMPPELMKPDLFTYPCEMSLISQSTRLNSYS
# Assay: human RXFP1 (hRXFP1) HEK293 cAMP assay (HTRF)
# Type: cell-based
# Details: HEK293 cells stably expressing human RXFP1, 30 min at room temperature
# In short: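 HEK293 cells stably expressing human RXFP1 (1500 cells/well) in HBSS/20 mM HEPES/0.05% BSA/0.5 mM IBMX, treated with compound (0.010 nM–50 µM final, 2% DMSO) for 30 min at room temperature. Intracellular cAMP read by HTRF; potency from 4-parameter logistic fit of cAMP versus concentration.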
row,EC50 [nM],Compound
1,5.3,"COc1ncc(-c2cc([C@H](OC(=O)N3CCS(=O)(=O)CC3)C(F)(F)F)ccc2F)cc1C(=O)N[C@@H]1C2CCC(/C2=C/C2CC2)[C@@H]1C(=O)Nc1ccc(F)c(C(F)(F)F)c1 (stereo partly drawn) [Example 187, (1S)-1-[3-(5-{[(2R,3S,7Z)-7-(cyclopropyl-methylidene)-3-{[4-fluoro-3-(trifluoromethyl)phenyl]carbamoyl}bicyclo[2.2.1]heptan-2-yl]carbamoyl}-6-methoxypyridin-3-yl)-4-fluorophenyl]-2,2,2-trifluoroethyl 1,1-dioxo-1λ^6-thiomorpholine-4-carboxylate]"
2,0.5,"COc1ncc(-c2cc([C@H](OC(=O)NC3CCC3)C(F)(F)F)ccc2F)cc1C(=O)N[C@H]1[C@@H](C(=O)N[C@H](C)C2(C)CC2)[C@H]2CC[C@@H]1/C2=C\C1CC(F)(F)C1 [Example 188, (1S)-1-[3-(5-{[(1R,2R,3S,4R,7Z)-7-[(3,3-difluorocyclobutyl)methylidene]-3-{[(1R)-1-(1-methylcyclopropyl)ethyl]carbamoyl}bicyclo[2.2.1]heptan-2-yl]carbamoyl}-6-methoxypyridin-3-yl)-4-fluorophenyl]-2,2,2-trifluoroethyl N-cyclobutyl-carbamate]"

# The next lines start with the compound.
row,Compound,EC50 [nM]
1,"COc1ncc(-c2cc([C@H](OC(=O)N3CC4(COC4)C3)C(F)(F)F)ccc2F)cc1C(=O)N[C@@H]1C2CCC(/C2=C/C2CC2)[C@@H]1C(=O)Nc1ccc(F)c(C(F)(F)F)c1 (stereo partly drawn) [Example 184, (1S)-1-[3-(5-{[(2R,3S,7Z)-7-(cyclopropyl-methylidene)-3-{[4-fluoro-3-(trifluoromethyl)phenyl]carbamoyl}bicyclo[2.2.1]heptan-2-yl]carbamoyl}-6-methoxypyridin-3-yl)-4-fluorophenyl]-2,2,2-trifluoroethyl 2-oxa-6-azaspiro[3.3] heptane-6-carboxylate]",4.8
2,"COc1ncc(-c2cc([C@H](OC(=O)NC3CCOCC3)C(F)(F)F)ccc2F)cc1C(=O)N[C@@H]1C2CCC(/C2=C/C2CC2)[C@@H]1C(=O)Nc1ccc(F)c(C(F)(F)F)c1 (stereo partly drawn) [Example 185, (1S)-1-[3-(5-{[(2R,3S,7Z)-7-(cyclopropyl-methylidene)-3-{[4-fluoro-3-(trifluoromethyl)phenyl]carbamoyl}bicyclo[2.2.1]heptan-2-yl]carbamoyl}-6-methoxypyridin-3-yl)-4-fluorophenyl]-2,2,2-trifluoroethyl N-(oxan-4-yl)carbamate]",2.5
3,"COc1ncc(-c2cc([C@H](OC(=O)Nc3ccccc3)C(F)(F)F)ccc2F)cc1C(=O)N[C@@H]1C2CCC(/C2=C/C2CC2)[C@@H]1C(=O)Nc1ccc(F)c(C(F)(F)F)c1 (stereo partly drawn) [Example 186, (1S)-1-[3-(5-{[(2R,3S,7Z)-7-(cyclopropyl-methylidene)-3-{[4-fluoro-3-(trifluoromethyl)phenyl]carbamoyl}bicyclo[2.2.1]heptan-2-yl]carbamoyl}-6-methoxypyridin-3-yl)-4-fluorophenyl]-2,2,2-trifluoroethyl N-phenylcarbamate]",0.8
4,"N- ((1R,2R,3S,4R,Z)- 3-((4-fluoro-3- (trifluoromethyl) phenyl)carbamoyl)- 7-3- hydroxy- propylidene) bicyclo[2.2.1] heptan-2-yl)-5-(5- (hydroxymethyl)- 3a,5,6,6a- tetrahydro-4H- cyclopenta[d] isoxazol-3-yl)-2- methoxy- nicotinamide [Example 114]",1.2

# Test system: not given
# Assay: not given
# Details: intravenous (IV) formulation; cited from earlier work
row,Compound,first-phase pharmacokinetic half-life [min]
1,Serelaxin,5.4
